The test system of assay [1] is melanoma and ovarian cancer cell lines. Put plainly: NCI-60 Five-Dose assay, melanoma and ovarian lines. Type of assay: cell-based, human. The procedure: (§1) Compounds 14a and 17a were submitted to the Developmental Therapeutics Program (DTP) of National Cancer Institute (NCI). […] […] Cells grew in the RPMI 1640 medium containing 5% fetal bovine serum and 2 mM L-glutamine and were inoculated into 96-well microtiter plates in 100 μL at plating densities ranging from 5.000 to 40.000 cells/well. The microtiter plates inoculated with cells were incubated at 37 °C, in 5% humidified CO2 for 24 h prior to addition of experimental drugs. Then, experimental drugs were added, and the microtiter plates were incubated for 48 h. The protocol is available on https://dtp.cancer.gov/discovery_development/nci-60/methodology.htm accessed on 31 December 2022.

Assay [2] deals with panel of 60 human tumor cell lines. Put plainly: NCI-60 analysis (One-Dose and Five-Dose), whole panel. The note with it: 48 h; for GI50: Homo sapiens, Five-Dose assay, 60 cell lines; for mean growth percent: One Dose (10 µM), 60 cancer cell lines. Type of assay: cell-based. As to the method:
(§2) Compounds 14a and 17a were submitted to the Developmental Therapeutics Program (DTP) of National Cancer Institute (NCI). Cytotoxicity activity was evaluated by performing One-Dose screening (10^−5 M) against a panel of 60 human tumor cell lines. […] Cells grew in the RPMI 1640 medium containing 5% fetal bovine serum and 2 mM L-glutamine and were inoculated into 96-well microtiter plates in 100 μL at plating densities ranging from 5.000 to 40.000 cells/well. The microtiter plates inoculated with cells were incubated at 37 °C, in 5% humidified CO2 for 24 h prior to addition of experimental drugs. Then, experimental drugs were added, and the microtiter plates were incubated for 48 h. The protocol is available on https://dtp.cancer.gov/discovery_development/nci-60/methodology.htm accessed on 31 December 2022.

In assay [3] the test system is SNB-19 (CNS). Put plainly: NCI-60 Five-Dose assay, SNB-19. It is filed as cell-based. The note with it: Homo sapiens, 48 h. As to the method: as §1
For assay [4], the system named is BEAS-2B cells. Put plainly: MTT cell viability assay, BEAS-2B (non-tumorigenic). It is filed as cell-based. The conditions noted are these: Homo sapiens, 48 h, nonmalignant bronchial epithelium. The procedure: (§3) The cell lines were obtained from the American Type Culture Collection (ATCC). Five tumor cell lines (MDA-MB-231, MCF-7, HCT116, HTB-54, and DU-145) and two non-tumorigenic cells (184B5 and BEAS-2B) were grown in RPMI 1640 medium (Gibco), and the HT-29 tumor cell line was grown in McCoy’s medium. Both mediums were supplemented with 10% fetal bovine serum (FBS; Gibco) and 1% antibiotics (10.00 units/mL penicillin and 10.00 μg/mL streptomycin; Gibco). Cells were preserved in tissue culture flasks at 37 °C and 5% CO2. The culture medium was replaced every three days.
(§4) The effect of each compound on cell viability was tested using the MTT assay. […] Selected compounds were then tested at seven different concentrations (0.5–100 μM) in MCF-7, HCT116, HT-29, HTB-54, 184B5 and BEAS-2B cells. Cells were seeded at 10^4 per well onto flat-bottomed 96-well culture plates. They were treated with either DMSO or increasing concentration of the corresponding compound for 48 h. Then, they were incubated with 20 μL of 3-(4,5-dimethylthiazol-2-yl)-2,5-diphenyltetrazolium bromide (MTT) (2 mg /mL stock; Aldrich) for 2,5 h and analyzed for their ability to generate a purple formazan dye. These formazan crystals were dissolved in 50 μL of DMSO. The absorbance was measured at a wavelength of 550 nm and the ratio of viable cells was calculated.
(§5) Results are expressed as cell viability % at 10 μM. Selectivity index were calculated as the ratio of the IC50 values determined for the non-malignant and the tumor cells in breast (IC50 (184B5)/IC50 (MCF-7)) and lung (IC50 (BEAS-2B)/IC50 (HTB-54)) cell lines. Data were obtained from at least three independent experiments performed in triplicates.
(In general: Formazan colour is commonly taken as a measure of viable cells.)

In assay [5] the test system is HTB-54 cells. Put plainly: MTT cell viability assay, HTB-54. Type of assay: cell-based. The conditions noted are these: for viability at 10 µM / IC50: HTB-54, 48 h, MTT; for viability at 10 µM: read-out: Cell growth % at 10 µM, HTB-54; for SI (lung): IC50 (BEAS-2B)/IC50 (HTB-54). In a few lines:
(§6)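 Cells grown in RPMI 1640 with 10% FBS at 37 °C, 5% CO2 were seeded at 10^4/well and exposed 48 h to compound (0.5–100 µM dose range). Values are % viability at 10 µM, with IC50 ratios non-tumorigenic/tumor as selectivity index.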

The test system of assay [6] is OVCAR-8 (ovarian). The assay is described as follows: NCI-60 Five-Dose assay, OVCAR-8. The conditions noted are these: Homo sapiens, 48 h. It is filed as cell-based. The procedure:
as §2

Assay [7] deals with T1, AChE (Rattus norvegicus, UniProt P37136).
T1 construct: from tissue; host or cells: frontal cortex of male Wistar rats (crude homogenate)
T1 sequence (P37136 32-614): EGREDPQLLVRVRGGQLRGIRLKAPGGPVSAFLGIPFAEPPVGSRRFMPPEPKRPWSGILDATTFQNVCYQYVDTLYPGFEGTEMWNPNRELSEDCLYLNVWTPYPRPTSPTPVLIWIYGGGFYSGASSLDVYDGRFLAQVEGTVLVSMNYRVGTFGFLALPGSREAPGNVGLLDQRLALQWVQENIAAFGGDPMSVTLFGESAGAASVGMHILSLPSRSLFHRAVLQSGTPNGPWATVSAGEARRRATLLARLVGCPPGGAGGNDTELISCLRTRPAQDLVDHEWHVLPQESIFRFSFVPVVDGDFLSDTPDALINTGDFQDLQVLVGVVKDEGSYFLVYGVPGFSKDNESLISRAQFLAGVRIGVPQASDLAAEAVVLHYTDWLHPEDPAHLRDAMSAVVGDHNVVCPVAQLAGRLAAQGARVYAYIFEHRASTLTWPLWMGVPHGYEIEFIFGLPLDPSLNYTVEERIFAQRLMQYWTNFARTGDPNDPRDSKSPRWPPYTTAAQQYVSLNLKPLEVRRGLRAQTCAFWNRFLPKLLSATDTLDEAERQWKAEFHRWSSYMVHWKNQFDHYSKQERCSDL
Put plainly: AChE inhibition by Ellman's method (rat frontal cortex homogenate). Type of assay: biochemical. In a few lines:
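Ellman assay using male Wistar rat frontal cortex homogenate in 75 mM sodium phosphate pH 7.4, with acetylthiocholine iodide as substrate, 8 min incubation. Reaction stopped with SDS, then DTNB added; thionitrobenzoate colour read at 405 nm. Mean ± SD from three experiments.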
(DTNB colorimetry detects thiols as they appear.)

In assay [8] the test system is DU-145 cells. The assay is described as follows: MTT cell viability assay, DU-145. It is filed as cell-based. The note with it: Homo sapiens, DU-145, 48 h, read-out: Cell growth % at 10 µM, DU-145. An outline of the steps: as §6
Assay [9] concerns MCF-7 cells. The assay is described as follows: MTT cell viability assay, MCF-7. Type of assay: cell-based. The conditions noted are these: for IC50: Homo sapiens, MCF7, MTT, 48 h; for SI (breast): IC50 (184B5)/IC50 (MCF-7). As to the method:
as §3, §4, §5

The subject of assay [10] is SK-MEL-5 (melanoma). Put plainly: NCI-60 Five-Dose assay, SK-MEL-5. The conditions noted are these: Homo sapiens, 48 h. It is filed as cell-based. The procedure:
as §1

Assay [11] relates to HCT116 cells. Put plainly: MTT cell viability assay, HCT116. It is filed as cell-based. The conditions noted are these: Homo sapiens, HCT-116, 48 h. The procedure: as §3, §4, §5

A word on the GI50: it is the concentration that inhibits growth by half. Low values mean more potent growth inhibition, high ones less potent growth inhibition. What is called IC50 is the concentration that gives 50% inhibition. Lower therefore signals greater potency in that assay. The term inhibition denotes the percentage by which the read-out fell short of the control. Take `C=CC[Se]C(=O)c1ccccc1OC(C)=O` [Compound 14a, 2-(allylselanylcarbonyl)phenylacetate]: the LD50 entry in assay [1] is “below 9.2 µM”. The GI50 in assay [2] was 1790 nM; in assay [3], 490 nM; in [6], 1500 nM; in [10], 1900 nM. Moreover, the mean growth percent in assay [2] is −5.89. In addition, the IC50 in assay [4] stood at 7.1 ± 2.4 µM; in assay [5], 9.9 ± 1.1 µM; in assay [7], 900 ± 200 nM; in [9] it was 9.9 ± 0.9 µM; in [11] it was 5.9 ± 0.8 µM. Besides, the figures for the viability at 10 µM in [5] and in assay [8] were 34.2 ± 6.2% and 16.9 ± 8.6%, respectively. Besides, in assay [5], the “SI (lung)” value amounted to 0.7. In addition, in [7] (at 10^−6 M, Ellman's method), the “% AChE Inhibition” value is 43.5 ± 2.6%. The molecule also displayed an inhibition at 1 µM in assay [7] (at 10^−6 M, Ellman's method) of 43.5%. The “SI (breast)” value in [9] was 1.0.
Consider `C=CC[Se]C(=O)Cc1c(C)n(C(=O)c2ccc(Cl)cc2)c2ccc(OC)cc12` [Compound 17a, Se-allyl 2-[1-(4-chlorobenzoyl)-5-methoxy-2-methyl-1H-indol-3-yl]ethaneselenoate], for which the LD50 result in assay [1] is given as “below 9.2 µM”. For the same molecule, the concentration for 50% growth inhibition (GI50) stood at 1740 nM in assay [2], 660 nM in [3], 1700 nM in [6] and 1700 nM in assay [10]. For the same molecule, the mean growth percent in [2] is listed as −26.70. The IC50 came to 6.3 ± 2.3 µM in assay [4], 7.9 ± 1.9 µM in assay [5], 9.8 ± 0.3 µM in assay [9] and 7 ± 0.9 µM in [11]. For the same molecule, the values for the viability at 10 µM in assay [5] and in assay [8] were 21.9 ± 6.5% and 16.3 ± 8.4%, respectively. The “SI (lung)” value in assay [5] is 0.8. The same molecule gave an inhibition at 1 µM in assay [7] (at 10^−6 M, Ellman's method) of 19.2 ± 8.3%. In assay [9], the “SI (breast)” value is reported as 1.4.
